Measurements from patent publication US20150105252A1, “SUBSTITUTED PYRAZOLES AS HERBICIDES” (E I DU PONT DE NEMOURS AND COMPANY, priority 2013, published 2015).

How the values were obtained:
deadnettle [1] = test: Test D preemergence; format: in vivo, Lamium amplexicaule; conditions: for Plant response rating, Deadnettle: Preemergence, scale 0 to 100
Text: (§1) Seeds of plant species selected from bluegrass (annual bluegrass, Poa annua), blackgrass (Alopecurus myosuroides), canarygrass (littleseed canarygrass, Phalaris minor), chickweed (common chickweed, Stellaria media), galium (catchweed bedstraw, Galium aparine), bromegrass, downy (downy bromegrass, Bromus tectorum), field poppy (Papaver rhoeas), field violet (Viola arvensis), foxtail, green (green foxtail, Setaria viridis), deadnettle (henbit deadnettle, Lamium amplexicaule), ryegrass, Italian (Italian ryegrass, Lolium multiflorum), kochia (Kochia scoparia), lambsquarters (Chenopodium album), oilseed rape (Brassica napus), pigweed (redroot pigweed, Amaranthus retroflexus), chamomile (scentless chamomile, Matricaria inodora), speedwell (bird's-eye speedwell, Veronica persica), barley, spring (spring barley, Hordeum vulgare), wheat, spring (spring wheat, Triticum aestivum), buckwheat, wild (wild buckwheat, Polygonum convolvulus), mustard, wild (wild mustard, Sinapis arvensis), oat, wild (wild oat, Avena fatua), radish, wild (wild radish, Raphanus raphanistrum), windgrass (Apera spica-venti), Russian thistle (Salsola kali), barley, winter (winter barley, Hordeum vulgare), and wheat, winter (winter wheat, Triticum aestivum) were planted into a silt loam soil and treated preemergence with test chemicals formulated in a non-phytotoxic solvent mixture which included a surfactant.
(§2) At the same time, these species were planted in pots containing Redi-Earth® planting medium (Scotts Company, 14111 Scottslawn Road, Marysville, Ohio 43041) comprising spaghnum peat moss, vermiculite, wetting agent and starter nutrients and treated with postemergence applications of the test chemicals formulated in the same manner. Plants ranged in height from 2 to 18 cm (1- to 4-leaf stage). Treated plants and controls were maintained in a controlled growth environment for 14 to 21 days after which time all species were compared to controls and visually evaluated. Plant response ratings, summarized in Table D, are based on a scale of 0 to 100 where 0 is no effect and 100 is complete control. A dash (-) response means no test result.

blackgrass = test: Test D preemergence; format: in vivo, Alopecurus myosuroides; conditions: for Plant response rating, Blackgrass: Preemergence, scale 0 to 100
Text: as §1, §2

field poppy = test: Test D preemergence; format: in vivo, Papaver rhoeas; conditions: for Plant response rating, Field Poppy: Preemergence, scale 0 to 100
Text: as §1, §2

kochia = test: Test D postemergence; format: in vivo, Kochia scoparia; conditions: scale 0 to 100
Text: as §1, §2

ryegrass, Italian = test: Test D postemergence; format: in vivo, Lolium multiflorum; conditions: scale 0 to 100
Text: as §1, §2

galium = test: Test D postemergence; format: in vivo, Galium aparine; conditions: scale 0 to 100
Text: as §1, §2

deadnettle [2] = test: Test D postemergence; format: in vivo, Lamium amplexicaule; conditions: scale 0 to 100
Text: as §1, §2

bromegrass, downy [3] = test: Test D preemergence; format: in vivo, Bromus tectorum; conditions: for Plant response rating, Bromegrass, Downy: Preemergence, scale 0 to 100
Text: as §1, §2

pigweed = test: Test D postemergence; format: in vivo, Amaranthus retroflexus; conditions: scale 0 to 100
Text: as §1, §2

foxtail, green = test: Test D postemergence; format: in vivo, Setaria viridis; conditions: scale 0 to 100
Text: as §1, §2

bromegrass, downy [4] = test: Test D postemergence; format: in vivo, Bromus tectorum; conditions: scale 0 to 100
Text: as §1, §2

lambsquarters = test: Test D postemergence; format: in vivo, Chenopodium album; conditions: scale 0 to 100
Text: as §1, §2

[5] = 16 g ai/ha, taken as preemergence

For `CCc1cc(C(=O)NOC(C)C)nn1Cc1cccc(OC(F)(F)F)c1` [Compound 70], the “Plant response rating (scale 0 to 100), Deadnettle” value (deadnettle [1]; [5]) was 0, the “Plant response rating, Deadnettle” value (deadnettle [1]; 31 g ai/ha) was 25 and the “Plant response rating, Deadnettle” value (deadnettle [1]; 62 g ai/ha) was 30. For the same compound, the “Plant response rating, Deadnettle” value (deadnettle [1]; 125 g ai/ha) was 50, the “Plant response rating, Deadnettle” value (deadnettle [1]; 250 g ai/ha) was 100 and the “Plant response rating (scale 0 to 100), Blackgrass” value (blackgrass; [5]) was 0. For the same compound, the “Plant response rating, Blackgrass” value (blackgrass; 31 g ai/ha) was 0, the “Plant response rating, Blackgrass” value (blackgrass; 62 g ai/ha) was 5 and the “Plant response rating, Blackgrass” value (blackgrass; 125 g ai/ha) was 10. For the same compound, the “Plant response rating, Blackgrass” value (blackgrass; 250 g ai/ha) was 30, the “Plant response rating (scale 0 to 100), Field Poppy” value (field poppy; [5]) was 20 and the “Plant response rating, Field Poppy” value (field poppy; 31 g ai/ha) was 100. For the same compound, the “Plant response rating, Field Poppy” value (field poppy; 62 g ai/ha) was 100, the “Plant response rating, Field Poppy” value (field poppy; 125 g ai/ha) was 90 and the “Plant response rating, Field Poppy” value (field poppy; 250 g ai/ha) was 100. For the same compound, the “Plant response rating, Kochia” value (kochia; Postemergence, 16 g ai/ha) was 40, the “Kochia plant response rating” value (kochia; Postemergence, 31 g ai/ha) was 85 and the “Kochia plant response rating” value (kochia; Postemergence, 125 g ai/ha) was 98. The “Kochia plant response rating” value (kochia; Postemergence, 250 g ai/ha) was 95, the “Kochia plant response rating” value (kochia; postemergence, 62 g ai/ha) was 70 and the “Plant response rating, Ryegrass, Italian” value (ryegrass, Italian; Postemergence, 16 g ai/ha) was 0. For the same compound, the “Ryegrass, Italian plant response rating” value (ryegrass, Italian; Postemergence, 31 g ai/ha) was 0, the “Ryegrass, Italian plant response rating” value (ryegrass, Italian; Postemergence, 125 g ai/ha) was 10 and the “Ryegrass, Italian plant response rating” value (ryegrass, Italian; Postemergence, 250 g ai/ha) was 15. For the same compound, the “Ryegrass, Italian plant response rating” value (ryegrass, Italian; postemergence, 62 g ai/ha) was 0, the “Plant response rating, Galium” value (galium; Postemergence, 16 g ai/ha) was 50 and the “Galium plant response rating” value (galium; Postemergence, 31 g ai/ha) was 60. The “Galium plant response rating” value (galium; Postemergence, 125 g ai/ha) was 75, the “Galium plant response rating” value (galium; Postemergence, 250 g ai/ha) was 80 and the “Galium plant response rating” value (galium; postemergence, 62 g ai/ha) was 70. The “Plant response rating, Deadnettle” value (deadnettle [2]; Postemergence, 16 g ai/ha) was 0, the “Deadnettle plant response rating” value (deadnettle [2]; Postemergence, 31 g ai/ha) was 10 and the “Deadnettle plant response rating” value (deadnettle [2]; Postemergence, 125 g ai/ha) was 30. For the same compound, the “Deadnettle plant response rating” value (deadnettle [2]; Postemergence, 250 g ai/ha) was 60, the “Deadnettle plant response rating” value (deadnettle [2]; postemergence, 62 g ai/ha) was 10 and the “Plant response rating (scale 0 to 100), Bromegrass, Downy” value (bromegrass, downy [3]; [5]) was 0. The “Plant response rating, Bromegrass, Downy” value (bromegrass, downy [3]; 31 g ai/ha) was 0, the “Plant response rating, Bromegrass, Downy” value (bromegrass, downy [3]; 62 g ai/ha) was 0 and the “Plant response rating, Bromegrass, Downy” value (bromegrass, downy [3]; 125 g ai/ha) was 10. For the same compound, the “Plant response rating, Bromegrass, Downy” value (bromegrass, downy [3]; 250 g ai/ha) was 20, the “Plant response rating, Pigweed” value (pigweed; Postemergence, 16 g ai/ha) was 40 and the “Pigweed plant response rating” value (pigweed; Postemergence, 31 g ai/ha) was 60. The “Pigweed plant response rating” value (pigweed; Postemergence, 125 g ai/ha) was 75, the “Pigweed plant response rating” value (pigweed; Postemergence, 250 g ai/ha) was 90 and the “Pigweed plant response rating” value (pigweed; postemergence, 62 g ai/ha) was 60. The “Plant response rating, Foxtail, Green” value (foxtail, green; Postemergence, 16 g ai/ha) was 0, the “Foxtail, Green plant response rating” value (foxtail, green; Postemergence, 31 g ai/ha) was 15 and the “Foxtail, Green plant response rating” value (foxtail, green; Postemergence, 125 g ai/ha) was 30. For the same compound, the “Foxtail, Green plant response rating” value (foxtail, green; Postemergence, 250 g ai/ha) was 60, the “Foxtail, Green plant response rating” value (foxtail, green; postemergence, 62 g ai/ha) was 0 and the “Plant response rating, Bromegrass, Downy” value (bromegrass, downy [4]; Postemergence, 16 g ai/ha) was 0. For the same compound, the “Bromegrass, Downy plant response rating” value (bromegrass, downy [4]; Postemergence, 31 g ai/ha) was 0, the “Bromegrass, Downy plant response rating” value (bromegrass, downy [4]; Postemergence, 125 g ai/ha) was 0 and the “Bromegrass, Downy plant response rating” value (bromegrass, downy [4]; Postemergence, 250 g ai/ha) was 10. For the same compound, the “Bromegrass, Downy plant response rating” value (bromegrass, downy [4]; postemergence, 62 g ai/ha) was 0, the “Plant response rating, Lambsquarters” value (lambsquarters; Postemergence, 16 g ai/ha) was 80 and the “Lambsquarters plant response rating” value (lambsquarters; Postemergence, 31 g ai/ha) was 85. For the same compound, the “Lambsquarters plant response rating” value (lambsquarters; Postemergence, 125 g ai/ha) was 98, the “Lambsquarters plant response rating” value (lambsquarters; Postemergence, 250 g ai/ha) was 98 and the “Lambsquarters plant response rating” value (lambsquarters; postemergence, 62 g ai/ha) was 98.
